Data on three compounds can be found in BindingDB's records for patent US20240025919 (Genentech, 2024).

One experiment addresses GTPase KRas [G12D] (Homo sapiens, UniProt P01116, G12D). Briefly: KRAS G12D LoEnz Biochemical Assay. The procedure:
Biochemical compound potencies are assessed by evaluating inhibition of SOS1I-mediated nucleotide exchange in KRAS […]. In this assay, the SOS1-promoted exchange of fluorescently-labeled GDP (BOPIDY-GDP) is monitored by time-resolved fluorescence resonance energy transfer (TR-FRET). Compounds solubilized in DMS0 are dispensed as concentration series into 384-well white assay plates. A preformed complex of biotin-tagged recombinant human KRAS (0.06 nM mutant G1 2D) and 0.06 nM terbium-labeled streptavidin (CisBIO) prepared in 10 uL/well assay buffer (20 mM HEPES, pH 7.5, 50 mM NaCl, 10 mMMMgCl2, 0.0100 Tween-20 and 1 mM dithiothreitol) is added and allowed to incubate for 10-minutes at room temperature. The reaction is initiated with the addition of 5 uL 300 nM recombinant human SOS1 and 300 nM BODIPY-GDP in assay buffer. After a 120-minute incubation, the fluorescence is measured with excitation at 337 nm and emission at 490 and 520 nm. The TR-FRET ratio is determined as the fluorescence at 520 nm divided by the fluorescence at 490 nm multiplied by 10,000. The results are normalized to percent inhibition based on control samples: DMSO (0% inhibition) and control compound at a concentration that inhibits completely (100% inhibition).

The next experiment has as its target GTPase KRas (Homo sapiens, UniProt P01116). Briefly: KRAS WT Biochemical Assay. The procedure:
Biochemical compound potencies are assessed by evaluating inhibition of SOS1-mediated nucleotide exchange in KRAS WT. In this assay, the SOS1-promoted exchange of fluorescently-labeled GDP (BOPIDY-GDP) is monitored by time-resolved fluorescence resonance energy transfer (TR-FRET). Compounds solubilized in DMSO are dispensed as concentration series into 384-well white assay plates. A preformed complex of 0.06 nM biotin-tagged recombinant human KRAS WT, 15 nM GDP and 0.06 nM terbium-labeled streptavidin (CisBIO) prepared in 10 uL/well assay buffer (20 mM HEPES, pH 7.5, 50 mM NaCl, 10 mM MgCl2, 0.01% Tween-20 and 1 mM dithiothreitol) is added and allowed to incubate for 10-minutes at room temperature. The reaction is initiated with the addition of 5 uL 300 nM recombinant human SOS1 and 300 nM BODIPY-GDP in assay buffer. After a 120-minute incubation, the fluorescence is measured with excitation at 337 nm and emission at 490 and 520 nm.

Chain of GTPase KRas [G12D] (P01116 whole entry G12D): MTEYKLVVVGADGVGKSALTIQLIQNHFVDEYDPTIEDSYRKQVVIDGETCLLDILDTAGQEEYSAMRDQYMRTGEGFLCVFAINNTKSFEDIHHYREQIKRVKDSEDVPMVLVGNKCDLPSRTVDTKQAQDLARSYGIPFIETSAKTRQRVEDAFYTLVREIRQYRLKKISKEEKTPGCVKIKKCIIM
Chain of GTPase KRas (P01116 whole entry): as the sequence (P01116 whole entry G12D) above, with D12G counted along it

In general, IC50 refers to the concentration at which inhibition is half-maximal. A higher IC50 goes with lower potency. With `Fc1c(-c2cccc3cccc(Cl)c23)nc2c3c(nc(OC[C@@]45CCCN4C[C@H](F)C5)nc13)N1C[C@H]3CC[C@H](N3)[C@H]1CO2` [US20240025919, Compound 2], the IC50 against GTPase KRas [G12D] turned out to be 15.2 nM; against GTPase KRas it was 922 nM.
On GTPase KRas [G12D], `C#Cc1c(F)ccc2cccc(-c3nc4c5c(nc(OCC67CCN6CC(F)(F)C7)nc5c3F)N3C[C@H]5CC[C@H](N5)[C@H]3[C@H](C)O4)c12` (some centres undefined) [US20240025919, Compound 22] displayed an IC50 of 2.99 nM. This lies in the single-digit nanomolar range.
Same read-out and setting: the value for `C[C@@H]1Oc2nc(-c3cc(N)c(F)c(F)c3CC(F)F)c(F)c3cc(OC[C@@H]4CC[C@H]5COCCN54)nc(c23)N2C[C@H]3CC[C@H](N3)[C@@H]12` [US20240025919, Compound 158] was 3.39 nM.
